Laboratory results as given in patent publication US9497963B2, “Methods and compositions for control of gypsy moth, Lymantria dispar” (Simon Fraser University, priority 2008, dated 2016).
Like-named read-outs stand apart in the source and are kept apart here.

Key:
[1] = system: male gypsy moth antenna response to pheromone (+)-1; assay: EAG short-term (STI) and long-term (LTI) inhibition of pheromone signaling (Example 5); parameters: species or system Lymantria dispar; details: for inhibition at 100 µg, 0.1 mg / inhibition at 0.001 mg / inhibition at 0.01 mg / inhibition at 0.1 mg: Lymantria dispar; for inhibition at 100 µg, 0.1 mg: read-out: Activity (%): long-term inhibition (LTI); for inhibition at 0.001 mg / inhibition at 0.01 mg / inhibition at 0.1 mg / Activity (%): short-term inhibition (STI): negative = enhancement; for inhibition at 0.001 mg / inhibition at 0.01 mg / inhibition at 0.1 mg: read-out: Activity (%): short-term inhibition (STI)
How it was run: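 Excised male gypsy moth antenna in saline pH 6.8 under purified air (300 mL/min); 0.3 s puffs: air, (+)-1 100 ng, (+)-1 plus compound 1, 10, 100 μg per cartridge, then (+)-1 alone. STI: mixed-puff air-corrected depolarization loss versus first pheromone puff; LTI: final pheromone-puff loss.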

male gypsy moth antenna = assay: Coupled gas chromatographic-electroantennographic detection (GC-EAD); parameters: species or system Lymantria dispar; details: EAD peak size and shape (sharp/broad)
How it was run: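 GC column effluent split between flame ionization detector and an excised male moth antenna held between saline-filled glass capillary electrodes, tip removed, in a warm air stream. Antennal potentials assigned to compounds by matching retention times with FID peaks.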

[2] = system: male gypsy moth antenna response to mixed pheromone/modulator plume; assay: EAG peak broadening (PB) (Example 11); parameters: species or system Lymantria dispar; details: mixed plume, 100 μg compound and 100 ng pheromone (puff v vs puff ii)
Procedure: A mixed pheromone/modulator plume could elicit a prolonged response (FIG. 1A, puff v; FIG. 2), and this was termed peak broadening (PB). PB was calculated from the EAG traces as follows: PB=100×(Δtv−Δtii)/Δtii
Where Δt was the width of the EAG peak (in s) from the start of the depolarization to the return to background potential.

L. dispar PBP 2 = assay: Pheromone-binding protein (PBP) ligand binding assay, PBP2; parameters: species or system Lymantria dispar
Procedure: (§1) A. The protein and ligand are incubated in buffer overnight. B. For half of the incubation mixture, the free ligand (L) is separated from the protein-bound ligand (P.L) by size-exclusion chromatography on P2 Gel (BioRad, exclusion limit 2000 Da). The protein elutes from the small column bed, with its ligand bound (see Examples and […] et al. 2000; Staddon and Everton 1980), while the free ligand is retained on the column ([…] et al. 2000). C. […] The extract from the filtrate (B) contains the protein-bound ligand and the extract from the incubation mixture (A) contains all the ligand (bound and free) present in the aqueous phase. The extracts are analyzed by GC-MS, to obtain values for total ligand in solution (L+P.L) and for protein-bound ligand (P.L). These can then be used to calculate % bound (Table 3). These assays were performed as described in FIG. 3 and as follows: L. dispar PBP 1 or PBP 2 was incubated with the test compound or mini-library. The PBP and the ligand(s) (L) were left to equilibrate (eq 2) overnight. The non-bound ligand was then separated from the protein-bound material (PBP.L) by size-exclusion chromatography. By determining the total ligand in solution at equilibrium (eq. 3) and the protein-bound ligand, it is possible to estimate the percentage of ligand bound to the protein at equilibrium (eq. 4). […] This binding assay has been validated extensively in previous studies ([…] et al. 2000). The components of each mini-library separated cleanly by GC, so it was possible to monitor binding of individual components. PBP+L⇄PBP·L (eq. 2) [L]tot=[L]+[PBP·L] (eq. 3) % bound=100×[PBP·L]/[L]tot (eq. 4) Results: The members of each mini-library separated cleanly by GC, therefore it was possible to monitor binding of individual members to PBP1 or PBP2, the two known PBPs in the gypsy moth, by extraction from the aqueous incubation mixture, followed by GC analysis of the extract (FIG. 3).

L. dispar PBP 1 = assay: Pheromone-binding protein (PBP) ligand binding assay, PBP1; parameters: species or system Lymantria dispar
Procedure: as §1

[3] = system: male gypsy moth antennae response to pheromone (+)-1 with plant odors; assay: Effect on mixed pheromone/plant odorant stimulus, EAG (Example 8, second objective); parameters: species or system Lymantria dispar; details: (+)-1 100 ng + 1-hexanol 100 μg, no antagonist
Procedure: A second objective for this experiment was to determine whether the oak volatiles, methyl eugenol and 1-hexanol, can enhance the antennal response to (+)-1 and whether the mixed pheromone/plant odorant stimulus can be inhibited by compound 3c{2,3} or DEET. The puff order was: i) air, ii) pure (+)-1 (100 ng), iii) (+)-1 (100 ng) and plant odorant (1 μg for methyl eugenol and 100 μg for 1-hexanol), iv) (+)-1 and plant odorant as in iii+antagonist (100 μg), v) same as in iii. Depolarizations were corrected for the air response as in Eq. 1 and the short-term effects were calculated for puff iii relative to puff ii, and for puff iv relative to puff ii. Long-term effects were calculated for puff v relative to puff iii (for LTI of the mixed pheromone/plant odorant plume) and for puff v relative to puff ii (to determine whether long-term effects of the plant odorant and of the antagonist cancel).

[4] = system: male gypsy moth antenna response to odorants other than (+)-1; assay: Long-term inhibition of responses to other pheromone and host plant odorants, EAG (Example 8, first objective); parameters: species or system Lymantria dispar
Procedure: To determine whether the long-term inhibitory effects of 3c{2,3} and DEET are specific to (+)-1 or also apply to other odorants, compound 3c{2,3} and DEET were tested further with other odorants: (−)-1, racemic 1, dispar alkene, methyl eugenol and 1-hexanol.
These included (−)-1, racemic 1, dispar alkene (the alkene corresponding to the carbon framework of 1), methyl eugenol (a characteristic oak wood odorant) and 1-hexanol (a green leaf volatile, shown previously to be detected by gypsy moth antennae). For the pure odorant puffs, (−)-1 and racemic 1 were administered at 100 ng/cartridge, the alkene, methyl eugenol was administered at 1 μg/cartridge and 1-hexanol was administered at 100 μg/cartridge. The antagonists were both administered at 100 μg/cartridge, mixed with the appropriate dose of the odorant. The puff order was: i) air, ii) pure odorant, iii) odorant+antagonist, iv) pure odorant. All puffs were corrected for the air response as in Eq. 1. STI values were obtained from the depolarization […]. LTI values were obtained by comparing the depolarization of puff iv relative to that of puff ii.

[5] = system: third instar gypsy moth larvae; assay: Feeding deterrence, oak leaf disc choice test (Example 13); assay type: in vivo, Lymantria dispar; details: third instar larvae, oak leaf discs, choice between treated and control disc for 17.5 hours; ((C−T)/(C+T))*100
Procedure: Gypsy moth larvae were tested at the Canadian Forest Service, for feeding deterrence. A selected set of compounds, based on the results with the electroantennogram testing and also based on feeding deterrence assay results with the cabbage looper, T. ni. The experiment was done with third instar larvae and oak leaf discs. Larvae were left to choose between a treated and a control disc for 17.5 hours. Measurements of leaf areas were used to calculate the amount of leaf consumed from control (C) and treated (T) leaves. Feeding deterrence was calculated using the following formula: ((C−T)/(C+T))*100, and expressed in percent, where C=area of control leaf consumed and T=area of treated leaf consumed.

[6] = mixed plume (+)-1 100 ng + compound 1 μg, mean ± S.E.
[7] = mixed plume (+)-1 100 ng + compound 10 μg, mean ± S.E.
[8] = mixed plume (+)-1 100 ng + compound 100 μg (puff v), mean ± S.E.
[9] = pure (+)-1 100 ng plume following mixed plume with 100 μg compound, mean ± S.E.
[10] = member tested within library 3c{1, 1-5}
[11] = member tested within library 3c{2, 1-5}
[12] = member tested within library 3c{5, 1-5}
[13] = member tested within library 3c{4, 1-5}
[14] = tested as single compound, means ± S.E., 4 replicates

Row | SMILES | GC-EAD activity (male gypsy moth antenna) | activity (% peak broadening) [2] | inhibition at 0.001 mg [1, 6] | inhibition at 0.01 mg [1, 7] | inhibition at 0.1 mg [1, 8] | inhibition at 100 µg, 0.1 mg [1, 9] | other results
1 | COc1ccccc1OC [3a{1,1}, 1,2-Dimethoxy benzene] | ++ sharp | 99 ± 25% | – | – | – | – | inhibition at 100 µg, 0.1 mg [1]: 18 ± 13%
2 | CCOc1ccccc1OCC [3a{2,2}, 1,2-Diethoxy benzene] | + sharp | 106 ± 32% | -10 ± 29% | -23 ± 42% | -22 ± 69% | 15 ± 11% | –
3 | CCCOc1ccccc1OCCC [3a{3,3}, 1,2-Dipropoxy benzene] | ++ sharp | 80 ± 31% | 37 ± 14% | 4 ± 21% | -11 ± 36% | 36 ± 9% | –
4 | CCCCOc1ccccc1OCCCC [3a{4,4}, 1,2-Dibutoxy benzene] | + broad | 86 ± 32% | -48 ± 28% | 14 ± 31% | 27 ± 29% | 49 ± 12% | –
5 | C=CCOc1cccc(OCC)c1 [3b{2,6}, 1-allyloxy-3-ethoxybenzene] | None | 77 ± 33% | -115 ± 43% | -17 ± 54% | -50 ± 74% | 25 ± 8% | –
6 | CCOc1ccc(OC)cc1 [3c{1,2}, 1-ethoxy-4-methoxy benzene] | ++ sharp | – | – | – | – | – | PBP2 (% bound) (L. dispar PBP 2; [10]): 12 ± 1.5%; PBP2 (% bound) (L. dispar PBP 2; [11]): 40 ± 0.1%; PBP1 (% bound) (L. dispar PBP 1; [10]): 15 ± 0.4%; PBP1 (% bound) (L. dispar PBP 1; [11]): 30 ± 0.2%
7 | COc1ccc(OCCC(C)C)cc1 [3c{1,5}, 1-methoxy-4-(3-methyl-butyloxy) benzene] | None | – | – | – | – | – | PBP2 (% bound) (L. dispar PBP 2; [10]): 2 ± 2.5%; PBP2 (% bound) (L. dispar PBP 2; [12]): 5 ± 0.1%; PBP1 (% bound) (L. dispar PBP 1; [10]): 1 ± 0.7%; PBP1 (% bound) (L. dispar PBP 1; [12]): 7 ± 0.1%
8 | CCOc1ccc(OCCC(C)C)cc1 [3c{2,5}, 1-ethoxy-4-(3-methyl-butyloxy) benzene] | None | – | – | – | – | – | PBP2 (% bound) (L. dispar PBP 2; [11]): 14 ± 0.2%; PBP2 (% bound) (L. dispar PBP 2; [12]): 3 ± 0.03%; PBP1 (% bound) (L. dispar PBP 1; [11]): 4 ± 0.2%; PBP1 (% bound) (L. dispar PBP 1; [12]): 2 ± 0.1%
9 | CCCCOc1ccc(OCCC)cc1 [3c{3,4}, 1-butoxy-4-propoxy benzene] | None | – | -11 ± 18% | -90 ± 23% | -180 ± 26% | 22 ± 12% | PBP1 (% bound) (L. dispar PBP 1; [13]): 4 ± 0.3%
10 | CCCOc1ccc(OCCC(C)C)cc1 [3c{3,5}, 1-(3-methyl-butyloxy)-4-propoxy benzene] | None | – | 10 ± 11% | -120 ± 20% | -145 ± 35% | 4 ± 7% | PBP2 (% bound) (L. dispar PBP 2; [12]): 2 ± 0.02%; PBP1 (% bound) (L. dispar PBP 1; member tested within library 3c{3, 1-5}): 1 ± 0.2%; PBP1 (% bound) (L. dispar PBP 1; [12]): 3 ± 0.1%
11 | CCCCOc1ccc(OCCCC)cc1 [3c{4,4}, 1,4-Dibutoxy benzene] | – | – | -107 ± 41% | -90 ± 57% | – | 7 ± 14% | PBP2 (% bound) (L. dispar PBP 2; [14]): 8 ± 0.3%; PBP1 (% bound) (L. dispar PBP 1; [14]): 4 ± 0.1%
12 | CCCCOc1ccc(OCCC(C)C)cc1 [3c{4,5}, 1-butoxy-4-(3-methyl-butyloxy) benzene] | None | – | – | – | – | – | PBP1 (% bound) (L. dispar PBP 1; [13]): 4 ± 0.4%
13 | CCCCCCO [Compound 1-hexanol, 1-hexanol, reference compound] | – | – | – | – | – | – | short-term effect with the plant synergist [3]: −19 ± 24 (10); EAG response to the pure odorant (in words) [4]: weak odorant
14 | C=CCc1ccc(OCCC)c(OC)c1 [Pr eugenol] | None | – | – | – | – | – | Activity (%): short-term inhibition (STI) [1, 6]: 18 ± 37 (6) %; Activity (%): short-term inhibition (STI) [1, 7]: 39 ± 23 (6) %; Activity (%): short-term inhibition (STI) [1, 8]: −79 ± 25 (6) %; Activity (%): long-term inhibition (LTI) [1, 9]: 7 ± 6 (6) %; Feeding Deterrence (%) [5]: 52.67%
